B1: HJURP shRNA: shRNA against HJURP (SEQ ID NO: 56 and 57) cloned into pSUPER.retro.puro retroviral vector (nucleic acid)
sense: GATCCCCGAGCGATTCATCTTCATCATTCAAGAGATGATGAAGATGAATCGCTCTTTTTGGAA
antisense: AGCTTTTCCAAAAAGAGCGATTCATCTTCATCATCTCTTGAATGATGAAGATGAATCGCTCGGG

What was measured:
Type in all cases: cell-based, human
[1] = test system: panel of 53 breast cancer cell lines; experiment: Cell viability/growth assay and dose response (GI50), CellTiter-Glo; settings: for GI50 values in cell lines with a high MNAI as compared to a low MNAI: breast cancer cell lines, FIG. 6; for effectiveness by breast cancer subtype: panel of 50 breast cancer cell lines that included both basal and luminal cell lines
Procedure: Human non-malignant and breast cancer cell lines, established from normal and human breast cancer samples, are publicly available and were used in the development of the mitotic network. The source of these cells includes nearly 55 well-characterized breast cell lines with genomic information (i.e. gene copy numbers of various genes) and gene expression data such as gene signatures characteristic of each cell line. Information that directs optimal incubation conditions are detailed in The cell incubational condition of the cell lines was shown reference (Neve, R. M. et al. Cancer Cell 10, 515-527 (2006).
The inhibitor compounds used were small molecule inhibitors. Theses small-molecule inhibitors for PLK1 (GSK461364), CENPE (GSK923295) and AURKB (GSK1070916) were provided by GlaxoSmithKline Inc. Stock solutions were made at a concentration of 10 mM in DMSO and stored at −20° C. Compounds were diluted (1:5 serial dilution), ranging between 0.0768 nM to 30 μM.
The cell viability and growth assay and dose response (GI50) experiments were conducted following dose-response curves that were determined according to the National Cancer Institute (NCI), National Institute of Health (NIH) guidelines. In brief, cell suspensions were plated into 96-well plates in 100 μl growth media. Inoculates were allowed a pre-incubation period of 24 hours at 37° C. for stabilization. Cells were treated with 9 doses in triplicates for 72 hours with GSK461364 or GSK1070916. Cell proliferation was measured with CellTiter-Glo® Luminescent Cell Viability Assay (Promega, Madison, Wis.). After subtraction of the baseline (the viability of the cells just before treatment, time 0), the absorbance was plotted. Total growth inhibition doses and 50% growth inhibition doses GI50 were calculated by GraphPad Prism4 software (GraphPad Software, Inc., La Jolla, Calif.).
Human non-malignant and breast cancer cell lines have been established from normal and human breast cancer samples. The cell lines described in this study derived from 49 malignant and 4 non-malignant breast tissues and growth conditions for the cell lines have been reported previously This resource consists of nearly 54 well-characterized breast cell lines with information on genomic and gene expression signatures. The cell incubational condition of the cell lines was shown previously by some of the inventors in Neve, R. M. et al. Cancer Cell 10, 515-527 (2006).
The small-molecule inhibitors for PLK1 (GSK461364), CENPE (GSK923295) and AURKB (GSK1070916) were provided by GlaxoSmithKline, Inc. Stock solutions were made at a concentration of 10 mM in DMSO and stored at −20° C. Compounds were diluted (1:5 serial dilution) to produce test drug concentrations ranging from 0.0768 nM to 30 μM.
Dose-response curves were determined according to the National Cancer Institute NIH guidelines. In brief, cell suspensions were aliquoted into 96-well plates in 100 μl growth media. Inoculates were allowed a preincubation period of 24 hours at 37° C. for stabilization. Cells were treated with 9 doses in triplicate for 72 hours with GSK461364 or GSK1070916. Cell proliferation was measured with CellTiter-Glo® Luminescent Cell Viability Assay (Promega, Madison. WI). After subtraction of the baseline (an estimate of the number of the cells just before treatment, time 0), the absorbance was plotted. Total growth inhibition doses and 50% growth inhibition doses GI50 were calculated by GraphPad Prism4 software (GraphPad Software, Inc., La Jolla, Calif.).
The correlation among the cellular GI50 values of GSK461364, GSK1070916 and GSK92325 was examined by Pearson correlation test. Tumor expression profiles were clustered using the mitotic network genes. Kaplan-Meier survival curves were generated for patients stratified into groups of high (upper tertile) and low (lower tertile) MNAI to evaluate differences in disease-free survival (DFS). […]

[2] = test system: sensitive (HCC38) or resistant (MDAMB175) breast cancer cell line; experiment: Treatment with mitotic apparatus inhibitors alone or in combination of two; settings: HCC38 (sensitive) and MDAMB175 (resistant), FIG. 8
Procedure: Dose response to GSK461364, GSK923295 and GSK1070916 was assayed individually or in combination in different breast cancer subtypes. FIG. 8A is a graph of response to single and combination doses of PLK1 and AURKB inhibitors; FIG. 8B is a graph of response to single and combination doses of PLK1 and CENPE inhibitors; and FIG. 8C is a graph of response to single and combination doses of CENPE and AURKB inhibitors.
In that case, combinations of mitotic apparatus inhibitors would not be expected to show additive or synergistic effects. We tested this by treatment of sensitive and resistant breast cancer cell lines with GSK461364 or GSK1070916 or GSK923295 alone and in combination two of them at different doses. […] That being the case, deployment of drugs targeting other genes in the mitotic apparatus network might contribute to development of a mitotic apparatus therapeutic armamentarium that could effectively counter development of drug resistance and provide durable treatments that will be effective against metastasis. Small molecular inhibitors have already been reported as under development for AURKA (MLN8054), CHEK2 (PD-321852). […] Work developing the mitotic network informs that inhibitors of these genes will be preferentially be effective in tumors with high MNAIs and are thus top candidates for drug development.
This was tested by treating a sensitive (HCC38) or resistant (MDAMB175) breast cancer cell line with GSK461364, GSK1070916 and GSK923295 either alone or in combination.

[3] = test system: HJURP protein in MDAMB231; experiment: HJURP protein level by Western blot after HJURP shRNA; settings: stable transfectants in MDAMB231, Western blotting, FIG. 20e
Procedure: For Western blots, […] of protein extracts per lane were electrophoresed with denaturing sodium doedecyl sulfate (SDS)-polyacrylamide gels (4% to 12%), transferred to PVDF membranes (Millipore, Temecula, Calif., USA), and incubated with HJURP antibody 1:500 (Rabbit, HPA008436, Sigma-Aldrich, St. Louis, Mo., USA) and actin (goat, sc-1616, Santa Cruz Biotechnology, Santa Cruz, Calif., USA) diluted with blocking buffer (927-40000, LI-COR Biosciences, Lincoln, Nebr., USA) The membranes were washed four times with TBST and treated with 1:10,000 dilution of Alex Fluor 680 donkey anti-rabbit (A10043 Invitrogen, Carlsbad, Calif., USA) and IRDye 800CW conjugated donkey anti-goat (611-731-127, Rockland, Gilbertsville, Pa., USA) to detect HJURP and actin respectively. The signals were detected by infrared imaging (LI-COR Biosciences, Lincoln, Nebr., USA). Images were recorded as TIFF files for quantification.
Protein levels were measured by quantifying infrared imaging recorded from labeled antibodies using Scion Image. For each protein, the blots were made for 7 sets of 11 cell lines, each set including the same pair (SKBR3 and MCF12A) to permit intensity normalization across sets. […]
Seventy-two hours after radiation, we measured cell growth and apoptosis using high-content image analysis. […]

[4] = test system: MDAMB231 breast cancer cells; experiment: Radiation sensitivity, high content imaging of cell number and apoptotic cells; settings: MDAMB231, 72 hours after X-ray radiation, FIG. 20f
Procedure: MDAMD231 cells are more sensitive to radiation treatment than T47D cells. […] There are more apoptosis in MDAMB231 cells than T47D cells. […] BT20 cells are more sensitive to radiation treatment than MCF10A cells. […] There are more apoptosis in BT20 cells than MCF10A cells.
High content imaging to assess cell number and apoptotic cells. The effects on cell growth and apoptosis were assessed by a Cellomics high-content image screening system (Cellomics, Thermo Fisher Scientific Inc., Pittsburgh, Pa., USA) after breast cancer cells exposed to a single dose of 0 (sham), 1, 2, 4, 6, 8 or 10 Gy X-ray radiation emitted from an irradiator (model 43855F, Faxitron X-ray Corporation, Lincolnshire, Ill., USA). Live cells in 96 well plates with six replicates from each treatment were stained with 1 μmol/L YO-PRO-1 positive cells.
Seventy-two hours after radiation, we measured cell growth and apoptosis using high-content image analysis. […] Similar results were found in additional cell lines BT20 with high levels of HJURP and MCF10A with low levels of HJURP (FIG. 20c, d). Finally we designed […] (shRNA) against HJURP and generated stable transfectants in a human breast cancer cell line (MDAMB231).

[5] = test system: cells with HJURP shRNA; experiment: Growth of cells with HJURP shRNA (data not shown)

Molecule	GI50 values in cell lines with a high MNAI as compared to a low MNAI [1]	effectiveness by breast cancer subtype [1]	response to combination of compounds against two different mitotic apparatus proteins versus alone [2]	down-regulation of HJURP protein levels [3]	sensitivity to radiation [4]	cell growth [5]
C[C@@H](Oc1cc(-n2cnc3ccc(CN4CCN(C)CC4)cc32)sc1C(N)=O)c1ccccc1C(F)(F)F [GSK461364]	significantly lower in cell lines with a high MNAI	most effective against basal cell breast cancer subtypes	did not increase the response in either cell type			
CC(C)Oc1ccc(C(=O)N[C@H](CNC(=O)CN(C)C)Cc2ccc(-c3cn4cccc([C@H](C)O)c4n3)cc2)cc1Cl [GSK923295]	significantly lower in cell lines with a high MNAI	most effective against basal cell breast cancer subtypes	did not increase the response in either cell type			
CCn1cc(-c2ccnc3[nH]c(-c4cccc(CN(C)C)c4)cc23)c(-c2ccc(NC(=O)N(C)C)cc2)n1 [GSK1070916]	significantly lower in cell lines with a high MNAI	most effective against basal cell breast cancer subtypes	did not increase the response in either cell type			
B1				75%	reduced the sensitivity to radiation	grew slowly

Reference: patent US20120222139A1, “Cancer Specific Mitotic Network” (THE REGENTS OF THE UNIVERSITY OF CALIFORNIA, priority 2009, published 2012)
